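The compound was tested at five concentrations on cells cultured in 96-well plates, with a 48-hour exposure period. GI50 marks 50% less growth.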 Active and inactive are the calls of the source. Cut-off read from the data, not from the text of the source: active = GI50 up to about 1.1 µM and inactive = higher.
Key:
Test in all cases: inhibition of tumour cell growth, NCI panel, 48 h
A549 = tested on: A549
BT-549 = tested on: BT-549
CAKI-1 = tested on: CAKI-1
COLO 205 = tested on: COLO 205
HCT-15 = tested on: HCT-15
HT-29 = tested on: HT-29
KM12 = tested on: KM12
LOX IMVI = tested on: LOX IMVI
MDA-N = tested on: MDA-N
MOLT-4 = tested on: MOLT-4
NCI-H522 = tested on: NCI-H522
SF-268 = tested on: SF-268
SK-MEL-5 = tested on: SK-MEL-5
SNB-19 = tested on: SNB-19
SR = tested on: SR
U-251 = tested on: U-251
CCRF-CEM = tested on: CCRF-CEM

SMILES | GI50 (A549) | GI50 (BT-549) | GI50 (CAKI-1) | GI50 (COLO 205) | GI50 (HCT-15) [µM] | GI50 (HT-29) | GI50 (KM12) | GI50 (LOX IMVI) | GI50 (MDA-N) | GI50 (MOLT-4) | GI50 (NCI-H522) | GI50 (SF-268) | GI50 (SK-MEL-5) | GI50 (SNB-19) | GI50 (SR) | GI50 (U-251) | GI50 (CCRF-CEM)
O=C(O)CCC(C(=O)O)N1C(=O)C2C3CCC(C3)C2C1=O (configuration not stated) | > 100 µM (inactive) | > 100 µM (inactive) | > 100 µM (inactive) | > 100 µM (inactive) | > 100 | > 100 µM (inactive) | > 100 µM (inactive) | > 100 µM (inactive) | > 100 µM (inactive) | > 100 µM (inactive) | > 100 µM (inactive) | > 100 µM (inactive) | > 100 µM (inactive) | > 100 µM (inactive) | > 100 µM (inactive) | > 100 µM (inactive) | –
C1=N\CCNCC/N=C\c2ccc(cc2)OCc2cccc(n2)COc2ccc/1cc2 | > 100 µM (inactive) | 66.4 µM (inactive) | > 100 µM (inactive) | > 100 µM (inactive) | 97.1 | > 100 µM (inactive) | > 100 µM (inactive) | – | > 100 µM (inactive) | > 100 µM (inactive) | 26.9 µM (inactive) | 22.2 µM (inactive) | 65.8 µM (inactive) | 49 µM (inactive) | > 100 µM (inactive) | 32 µM (inactive) | > 100 µM (inactive)
COc1ccc(Cn2c(=O)c(OS(=O)(=O)C(F)(F)F)c(C)c3cc4ccccc4cc32)cc1 | > 100 µM (inactive) | > 100 µM (inactive) | > 100 µM (inactive) | > 100 µM (inactive) | > 100 | > 100 µM (inactive) | > 100 µM (inactive) | > 100 µM (inactive) | > 100 µM (inactive) | > 100 µM (inactive) | > 100 µM (inactive) | > 100 µM (inactive) | > 100 µM (inactive) | > 100 µM (inactive) | > 100 µM (inactive) | > 100 µM (inactive) | > 100 µM (inactive)
Nc1cc2c3c(cccc3c1)C(=O)N(c1ccc(OCCN3CCCC3)cc1)C2=O | 16.2 µM (inactive) | 15.8 µM (inactive) | 45.3 µM (inactive) | 14.1 µM (inactive) | 13.8 | 13.5 µM (inactive) | 16.1 µM (inactive) | 17 µM (inactive) | 16.6 µM (inactive) | 18.5 µM (inactive) | 16 µM (inactive) | 21.3 µM (inactive) | 18.7 µM (inactive) | 17.2 µM (inactive) | 17.9 µM (inactive) | 25.6 µM (inactive) | 23.3 µM (inactive)
CCOC(=O)CCSc1nc2ccc(I)cc2c(=O)n1Cc1ccccc1 | 31.6 µM (inactive) | 35.6 µM (inactive) | 2.67 µM (inactive) | 12.4 µM (inactive) | 18 | 34.4 µM (inactive) | 22.3 µM (inactive) | 28.2 µM (inactive) | 25.7 µM (inactive) | – | 10.7 µM (inactive) | 27.2 µM (inactive) | 12.6 µM (inactive) | 38.2 µM (inactive) | 7.24 µM (inactive) | 33 µM (inactive) | 15.8 µM (inactive)
c1ccc(CSc2ccccc2CN2CCN(Cc3ccccc3SCc3ccccc3)CCN(Cc3ccccc3SCc3ccccc3)CC2)cc1 | 2.35 µM (inactive) | 1.87 µM (inactive) | 3.21 µM (inactive) | 0.869 µM (active) | 1.61 | 0.499 µM (active) | 1.58 µM (inactive) | 1.33 µM (inactive) | 1.52 µM (inactive) | 1.63 µM (inactive) | 0.395 µM (active) | 2.94 µM (inactive) | 1.57 µM (inactive) | 1.92 µM (inactive) | 2.16 µM (inactive) | 0.869 µM (active) | 2.35 µM (inactive)
COc1ccc(C(=O)/C=C/c2cc(O)c(O)cc2F)c(OC)c1 | 10.5 µM (inactive) | 6.52 µM (inactive) | 9.04 µM (inactive) | 15.8 µM (inactive) | 0.448 | 7.48 µM (inactive) | 5.16 µM (inactive) | 10.6 µM (inactive) | 2.54 µM (inactive) | 3.71 µM (inactive) | 0.354 µM (active) | 7.28 µM (inactive) | 8.05 µM (inactive) | 9.79 µM (inactive) | 0.564 µM (active) | 5.45 µM (inactive) | 0.783 µM (active)
COc1ccc(C2=Nn3c(C)nnc3S/C2=C\c2ccc(-c3ccc([N+](=O)[O-])cc3)o2)cc1 | 20 µM (inactive) | 5.86 µM (inactive) | 14.5 µM (inactive) | – | 10.9 | 14.2 µM (inactive) | 16.1 µM (inactive) | 6.03 µM (inactive) | 6.62 µM (inactive) | 3.56 µM (inactive) | 6.34 µM (inactive) | 12.3 µM (inactive) | 19 µM (inactive) | 15.6 µM (inactive) | 3.21 µM (inactive) | 9.33 µM (inactive) | 3.92 µM (inactive)
COC(=O)C(=O)C(C(=O)C(=O)Nc1ccc([N+](=O)[O-])cc1[N+](=O)[O-])c1nc2ccc(Cl)cc2nc1O (configuration not stated) | > 100 µM (inactive) | > 100 µM (inactive) | 17.5 µM (inactive) | > 100 µM (inactive) | > 100 | > 100 µM (inactive) | > 100 µM (inactive) | > 100 µM (inactive) | > 100 µM (inactive) | > 100 µM (inactive) | – | 74.1 µM (inactive) | > 100 µM (inactive) | > 100 µM (inactive) | > 100 µM (inactive) | > 100 µM (inactive) | > 10 µM (inactive)
Nc1ccccc1/N=C/c1cc2cc([N+](=O)[O-])ccc2s1 | 8.47 µM (inactive) | 12.5 µM (inactive) | 15.5 µM (inactive) | 17.8 µM (inactive) | 43.3 | 25.8 µM (inactive) | 10 µM (inactive) | 13.9 µM (inactive) | 37.8 µM (inactive) | 3.08 µM (inactive) | 15.1 µM (inactive) | 14.6 µM (inactive) | 21.4 µM (inactive) | 14.1 µM (inactive) | 11 µM (inactive) | 14.5 µM (inactive) | 5.01 µM (inactive)
CSc1ncnc2c1cnn2CCCCO | > 100 µM (inactive) | > 100 µM (inactive) | > 100 µM (inactive) | > 100 µM (inactive) | > 100 | > 100 µM (inactive) | > 100 µM (inactive) | > 100 µM (inactive) | > 100 µM (inactive) | > 100 µM (inactive) | > 100 µM (inactive) | > 100 µM (inactive) | > 100 µM (inactive) | > 100 µM (inactive) | > 100 µM (inactive) | > 100 µM (inactive) | > 100 µM (inactive)
O=S(=O)(c1ccccc1)[C@H]1[C@@H]2O[C@@H]2C[C@@H]1O | > 100 µM (inactive) | > 100 µM (inactive) | > 100 µM (inactive) | > 100 µM (inactive) | > 100 | > 100 µM (inactive) | > 100 µM (inactive) | – | > 100 µM (inactive) | > 100 µM (inactive) | > 100 µM (inactive) | > 100 µM (inactive) | > 100 µM (inactive) | > 100 µM (inactive) | > 100 µM (inactive) | > 100 µM (inactive) | > 100 µM (inactive)
N=c1oc2ccc3ccccc3c2cc1C(N)=O | 64.6 µM (inactive) | 89.7 µM (inactive) | 43.5 µM (inactive) | 48.6 µM (inactive) | 58.1 | 38.7 µM (inactive) | 16.7 µM (inactive) | 31.2 µM (inactive) | 37.1 µM (inactive) | 48.6 µM (inactive) | – | 31.4 µM (inactive) | 46.1 µM (inactive) | 25.1 µM (inactive) | 34 µM (inactive) | 94.6 µM (inactive) | 35.9 µM (inactive)
CC(C)COC(c1ccc2c(c1)OCO2)C(C)Br (configuration not stated) | 29.1 µM (inactive) | 35.5 µM (inactive) | 30.3 µM (inactive) | 22.6 µM (inactive) | 23.3 | 18.9 µM (inactive) | 22.9 µM (inactive) | 17.4 µM (inactive) | 21.6 µM (inactive) | – | 18.7 µM (inactive) | 25.2 µM (inactive) | 18.7 µM (inactive) | 33.7 µM (inactive) | 21.2 µM (inactive) | 26.5 µM (inactive) | –
CC(=O)OCC(OC(C)=O)C1C[C@H]2O[C@@H]3[C@H](C[C@H]2O1)O[C@@]1(C[C@@H]3C)C[C@H](C)[C@@H]2O[C@]3(C[C@@H]2O1)C[C@H]1O[C@H]2[C@H](C)[C@H]4OC(=O)CC5CC[C@H]6OC7[C@H]8O[C@]9(CC[C@H]%10CC(O)(CO)[C@H](CC[C@H]%11C[C@@H](C)C(O)(CO)C(C[C@@H]4O[C@H]2C[C@H]1O3)O%11)O%10)CC8O[C@@H]7[C@@H](O9)[C@H]6O5 (some centres not stated) | 0.00643 µM (active) | 0.00185 µM (active) | 0.0127 µM (active) | 0.00445 µM (active) | 0.00486 | – | 0.00415 µM (active) | 0.0146 µM (active) | 0.00083 µM (active) | 0.0064 µM (active) | 0.000942 µM (active) | 0.00986 µM (active) | 0.00141 µM (active) | 0.0194 µM (active) | 0.000581 µM (active) | 0.00618 µM (active) | 0.00944 µM (active)
COc1cc2c(c(OC)c1)C(C)=NC(C)C2 (configuration not stated) | > 100 µM (inactive) | > 100 µM (inactive) | > 100 µM (inactive) | > 100 µM (inactive) | > 100 | > 100 µM (inactive) | > 100 µM (inactive) | > 100 µM (inactive) | > 100 µM (inactive) | > 100 µM (inactive) | 76.7 µM (inactive) | > 100 µM (inactive) | > 100 µM (inactive) | > 100 µM (inactive) | > 100 µM (inactive) | – | > 100 µM (inactive)
CC(C)=CC[C@H]1C[C@]2(CC=C(C)C)C(=O)[C@@](CC=C(C)C)(C(=O)C(C(=O)c3ccccc3)=C2O)C1(C)C [6-EPI-CLUSIANONE] | 4.94 µM (inactive) | 8.93 µM (inactive) | 4.44 µM (inactive) | 3.94 µM (inactive) | 5.04 | 4.67 µM (inactive) | 3.88 µM (inactive) | 3.46 µM (inactive) | 5.21 µM (inactive) | 4.56 µM (inactive) | 5.38 µM (inactive) | 10.2 µM (inactive) | 4.53 µM (inactive) | 5.21 µM (inactive) | 8.65 µM (inactive) | 4.31 µM (inactive) | –

From ChEMBL document CHEMBL1201862, “PubChem BioAssay data set” (2004)
